In patent US20160102058A1, “FLUORO-PERHEXILINE COMPOUNDS AND THEIR THERAPEUTIC USE” (THE UNIVERSITY COURT OF THE UNIVERSITY OF ABERDEEN, priority 2013, published 2016):

Key:
[1] = cited from earlier work
[2] = Rat liver microsomal (RLM) stability assay; format: in vitro ADME; conditions: both sexes, pH 7.4, rat liver microsomes, 3 μM test compound
Procedure: (§1) The metabolic stability of fluoroperhexiline derivatives was measured by determination of the rate of compound disappearance when incubated in the presence of both human and rat liver microsomes. Liver microsomes are prepared from the endoplasmic reticulum of hepatocytes and are the primary source of the most important enzymes (cytochrome P450) involved in drug metabolism. Study of drug stability in the presence of liver microsomes is accepted as a valuable model permitting rapid prediction of in vivo drug stability.
(§2) Human and rat liver microsomes were obtained from a commercial source. Test compounds (3 μM) were incubated with pooled liver microsomes (male and female). Samples were incubated for a 45 minute period and removed at 5 time points and test compounds were analysed by LC-MS/MS.
(§3) Microsomes (final protein concentration 0.5 mg/mL), 0.1 M phosphate buffer pH 7.4, and test compound (final concentration 3 μM; diluted from 10 mM stock solution to give a final DMSO concentration of 0.25%) were incubated at 37° C. prior to the addition of NADPH (final concentration 1 mM) to initiate the reaction. The final incubation volume was 25 μL. A control incubation was included for each compound tested, where 0.1 M phosphate buffer pH 7.4 was added instead of NADPH. The control compounds testosterone and 7-hydroxycoumarin were included in each experiment and all incubations were performed singularly for each compound.
(§4) Each compound was incubated for 0, 5, 15, 30, and 45 minutes. The control (minus NADPH) was incubated for 45 minutes only. The reactions were stopped by the addition of 50 μL methanol containing internal standard at the appropriate time points. The incubation plates were centrifuged at 2500 rpm for 20 minutes at 4° C. to precipitate the protein.
(§5) Following protein precipitation, the sample supernatants were combined in cassettes of up to 4 compounds and analysed using standard LC-MS/MS conditions.
(§6) From a plot of the natural logarithm of the peak area ratio (i.e., the ratio of compound peak area:internal standard peak area) against time, the gradient of the line was determined. Subsequently, half-life and intrinsic clearance were calculated using the equations below:
(§7) Eliminated Rate Constant (k)=(−Gradient).
(§8) Half-Life (t1/2) (min)=0.063/k.
(§9) Intrinsic Clearance (CLint) […]=(V×0.693)/t1/2. • wherein V=Incubation Volume (μL/mg microsomal protein).

[3] = molecular target: T1, CYP2D6 (Homo sapiens, UniProt P10635); test: Cytochrome P450 2D6 reaction phenotyping (Bactosomes); format: in vitro ADME
T1 construct: purchased Cypex Ltd; host or cells: bacterial membranes (Bactosomes)
Procedure: The stability of fluoroperhexiline derivatives towards CYP2D6-mediated metabolism was measured by determination of the rate of compound disappearance when incubated in the presence CYP2D6 recombinant isoform expression systems (Bactosomes™). The percentage of parent compound remaining at each time point (following correction for any loss in the incubations with the control bactosomes) is calculated. cDNA expressed human CYP450 enzyme preparations co-expressed with human NADPH cytochrome P450 reductase (Bactosomes™) are supplied by Cypex Ltd. Bactosomes™ are stored at −80° C. prior to use. […] Incubations are also performed using control bactosomes (no P450 enzymes present) to reveal any non-enzymatic degradation. The final incubation volume is 25 μL. A compound known to be metabolised specifically by CYP2D6 isoform is used as a control compound. Each compound is incubated singly for 0, 5, 15, 30 and 45 min with each isoform. The reactions are stopped by the addition of 50 μL methanol containing internal standard at the appropriate time points. The incubation plates are centrifuged at 2500 rpm for 20 min at 4° C. to precipitate the protein. Following protein precipitation, the sample supernatants are combined in cassettes of up to four compounds and analysed using Cyprotex generic LC-MS/MS conditions. The natural logarithm of the peak area ratio (which has been corrected for any loss in the incubations with the control bactosomes) is plotted against time and the gradient of the line determined. Elimination Rate Constant (k)=(−Gradient).

[4] = Human liver microsomal (HLM) stability assay; format: in vitro ADME
Procedure: as §1, §2, §3, §4, §5, §6, §7, §8, §9

T1 sequence (P10635 whole entry): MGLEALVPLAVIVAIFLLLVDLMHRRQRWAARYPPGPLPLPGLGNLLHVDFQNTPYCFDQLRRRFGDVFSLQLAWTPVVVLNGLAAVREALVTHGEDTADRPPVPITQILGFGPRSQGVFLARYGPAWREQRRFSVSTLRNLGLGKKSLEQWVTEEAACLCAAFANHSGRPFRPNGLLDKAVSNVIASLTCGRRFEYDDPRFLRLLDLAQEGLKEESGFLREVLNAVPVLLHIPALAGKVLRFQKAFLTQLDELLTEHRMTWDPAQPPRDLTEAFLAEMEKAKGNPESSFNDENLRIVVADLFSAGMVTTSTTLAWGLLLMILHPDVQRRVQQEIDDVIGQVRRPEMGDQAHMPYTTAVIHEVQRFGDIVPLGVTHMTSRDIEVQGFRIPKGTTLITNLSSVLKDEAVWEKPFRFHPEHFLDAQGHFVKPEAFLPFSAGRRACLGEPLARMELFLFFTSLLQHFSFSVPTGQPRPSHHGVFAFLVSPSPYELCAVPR

O[C@H]1CC[C@@H](C(CC2CCCCN2)C2CCCCC2)CC1 (relative stereo) [cis-OH-perhexiline, cis-4-[1-(cyclohexyl)-2-(2-piperidinyl)ethyl]cyclohexanol]
plasma AUC of cis-OH-perhexiline after (−)-perhexiline compared with (+)-perhexiline ([1]; plasma): 28 fold

C1CCC(C(CC2CCCCN2)C2CCCCC2)CC1 (single isomer, unassigned; (+)) [(+)-perhexiline]
ratio of systemic exposure of (+)- to (−)-perhexiline, extensive metabolisers ([1]; EM): 1.5 | ratio of systemic exposure of (+)- to (−)-perhexiline, poor metabolisers ([1]; PM): 2.3 | plasma AUC, (+)-perhexiline relative to (−)-perhexiline ([1]; plasma): 2.5 fold

FC1(F)CCC(C(CC2CCCCN2)C2CCC(F)(F)CC2)CC1 (centres unmarked) [FPER-002, 2-(2,2-Bis(4,4-Difluorocyclohexyl)ethyl)piperidine]
microsomal CLint at 3 μM ([2]; read-out: CLint (μL/min/mg protein) RLM): 0.8 µL/min/mg | half-life at 3 μM ([2]; read-out: T½ (min) RLM): 1650 min | half-life at 5 μM ([3]; human, pH 7.4, recombinant CYP2D6 Bactosomes, 5 μM test compound, read-out: T½): 2.52 h | stability towards CYP2D6 compared with perhexiline (in words) ([3]; versus perhexiline): substantial increase in stability towards CYP2D6 | microsomal CLint at 3 μM ([4]; both sexes, pH 7.4, human liver microsomes, 3 μM test compound, read-out: CLint (μL/min/mg protein) HLM): 0.3 µL/min/mg | half-life at 3 μM ([4]; both sexes, pH 7.4, human liver microsomes, 3 μM test compound, read-out: T½ (min) HLM): 4210 min | metabolic stability compared with perhexiline (in words) ([4]; human and rat liver microsomes, versus perhexiline): substantial increase in metabolic stability
